US8791107B2, “N-substituted oxazinopteridines and oxazinopteridinones” (Takeda Pharmaceutical Company Limited, priority 2011, dated 2014)

These compounds were tested against T1, PI3Kδ (Homo sapiens, UniProt O00329) (assay: PI3Kδ inhibition, modified PIK3CD Adapta TR-FRET assay). Details: recombinant GST-tagged full length PIK3CD co-expressed with PIK3R1 (p85α); 2 μM ATP, 50 μM PIP2.
T1 construct: The protein is full length and co-expressed with untagged PIK3R1; GST; purchased Invitrogen PV5274
Assay type: biochemical
How it was run: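 Full-length GST-PIK3CD co-expressed with p85α was run in 50 mM HEPES pH 7.5, 3 mM MgCl2, 1 mM EGTA, 100 mM NaCl, 0.03% CHAPS, 2 mM DTT, 1% DMSO, with 12-point compound titrations. Reactions at room temperature were started with solution containing 2 μM ATP and 50 μM PIP2. ADP was detected by Adapta TR-FRET (620 nm-ratioed).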

T1 sequence (O00329 whole entry): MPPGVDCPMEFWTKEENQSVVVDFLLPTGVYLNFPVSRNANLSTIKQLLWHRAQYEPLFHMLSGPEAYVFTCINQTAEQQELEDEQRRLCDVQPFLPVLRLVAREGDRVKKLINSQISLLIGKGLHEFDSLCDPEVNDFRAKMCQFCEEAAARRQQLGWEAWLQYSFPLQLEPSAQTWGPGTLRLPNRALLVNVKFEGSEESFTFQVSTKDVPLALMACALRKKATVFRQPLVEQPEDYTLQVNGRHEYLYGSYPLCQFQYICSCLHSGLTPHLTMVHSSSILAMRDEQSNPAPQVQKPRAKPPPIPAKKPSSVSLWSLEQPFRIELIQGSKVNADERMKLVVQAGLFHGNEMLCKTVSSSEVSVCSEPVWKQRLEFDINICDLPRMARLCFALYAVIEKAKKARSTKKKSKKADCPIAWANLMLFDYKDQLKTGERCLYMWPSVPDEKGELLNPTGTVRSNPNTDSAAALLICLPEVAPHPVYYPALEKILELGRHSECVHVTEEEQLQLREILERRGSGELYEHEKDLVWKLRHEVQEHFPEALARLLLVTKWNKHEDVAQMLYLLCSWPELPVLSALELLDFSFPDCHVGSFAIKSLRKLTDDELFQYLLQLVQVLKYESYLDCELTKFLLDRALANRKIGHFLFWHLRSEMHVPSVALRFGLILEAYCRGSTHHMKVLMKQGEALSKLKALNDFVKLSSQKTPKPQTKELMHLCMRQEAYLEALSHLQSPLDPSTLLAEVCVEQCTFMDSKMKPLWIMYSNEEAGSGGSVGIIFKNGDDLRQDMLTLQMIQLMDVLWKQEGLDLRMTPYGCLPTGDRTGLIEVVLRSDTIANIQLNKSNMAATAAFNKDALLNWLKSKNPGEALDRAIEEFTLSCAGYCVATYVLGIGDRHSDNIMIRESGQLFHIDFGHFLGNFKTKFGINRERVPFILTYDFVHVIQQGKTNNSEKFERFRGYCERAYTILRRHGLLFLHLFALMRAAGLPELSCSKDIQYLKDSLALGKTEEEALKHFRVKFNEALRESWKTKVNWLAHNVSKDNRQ
T1 sequence (P27986 whole entry partner): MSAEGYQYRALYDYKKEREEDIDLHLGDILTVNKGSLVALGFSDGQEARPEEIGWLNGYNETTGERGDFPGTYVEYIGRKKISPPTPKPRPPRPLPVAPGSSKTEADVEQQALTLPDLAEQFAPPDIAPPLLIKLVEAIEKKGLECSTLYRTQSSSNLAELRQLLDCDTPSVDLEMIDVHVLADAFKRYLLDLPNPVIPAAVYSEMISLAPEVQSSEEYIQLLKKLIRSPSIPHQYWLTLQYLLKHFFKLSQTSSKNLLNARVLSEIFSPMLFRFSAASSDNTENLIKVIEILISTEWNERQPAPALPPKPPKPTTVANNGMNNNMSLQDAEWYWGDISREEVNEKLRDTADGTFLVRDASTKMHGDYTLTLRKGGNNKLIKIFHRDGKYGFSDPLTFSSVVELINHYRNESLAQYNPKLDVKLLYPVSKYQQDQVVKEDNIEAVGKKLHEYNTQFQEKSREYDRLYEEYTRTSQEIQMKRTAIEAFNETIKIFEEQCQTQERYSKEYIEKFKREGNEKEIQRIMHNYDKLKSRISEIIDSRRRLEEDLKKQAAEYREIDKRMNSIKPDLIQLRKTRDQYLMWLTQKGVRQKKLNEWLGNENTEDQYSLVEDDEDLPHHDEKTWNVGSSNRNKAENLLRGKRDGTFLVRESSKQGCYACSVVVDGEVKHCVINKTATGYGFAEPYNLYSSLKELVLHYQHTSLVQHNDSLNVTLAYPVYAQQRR

Row | PI3Kδ Inhibition (pIC50) | SMILES
1 | 6.9 | Cc1ccc([C@H](C)N2C(=O)[C@H]3COCCN3c3nc(-c4cccc5[nH]ccc45)ncc32)cc1 [Example 154, (R)-2-(1H-indol-4-yl)-5-((5)-1-p-tolylethyl)-6a,7,9,10-tetrahydro-[1,4]oxazino[3,4-h]pteridin-6(5H)-one]

Same assay, conditions: recombinant GST-tagged full length PIK3CD co-expressed with PIK3R1 (p85α); 2 μM ATP, 50 μM PIP2; read-out: PI3Kδ Inhibition (pIC50) (converted)

Row | SMILES | IC50 [nM]
2 | CNC(=O)Nc1ccc(-c2ncc3c(n2)N2CCOCC2C(=O)N3C2(c3ccc(Cl)cc3)CC2)cc1 (centres unmarked) [Example 99, 1-(4-(5-(1-(4-chlorophenyl)cyclopropyl)-6-oxo-5,6,6a,7,9,10-hexahydro-[1,4]oxazino[3,4-h]pteridin-2-yl)phenyl)-3-methylurea] | 6.31
3 | CC(C)N(C)C(=O)CN1CC2COCCN2c2nc(-c3cccc4[nH]ccc34)ncc21 (centres unmarked) [Example 44, 2-(2-(1H-indol-4-yl)-6a,7,9,10-tetrahydro-[1,4]oxazino[3,4-h]pteridin-5(6H)-yl)-N-isopropyl-N-methylacetamide] | 316
4 | CCc1nnc(CN2CC3COCCN3c3nc(-c4cccc5[nH]ccc45)ncc32)o1 (centres unmarked) [Example 35, 5-((5-ethyl-1,3,4-oxadiazol-2-yl)methyl)-2-(1H-indol-4-yl)-5,6,6a,7,9,10-hexahydro-[1,4]oxazino[3,4-h]pteridine] | 10
5 | c1ccc(-n2cc(CN3CC4COCCN4c4nc(-c5cccc6[nH]ccc56)ncc43)nn2)cc1 (centres unmarked) [Example 40] | 15.8
6 | COc1ccc(CC(=O)N2CC3COCCN3c3nc(-c4cccc5[nH]ccc45)ncc32)cc1 (centres unmarked) [Example 20, 1-(2-(1H-indol-4-yl)-6a,7,9,10-tetrahydro-[1,4]oxazino[3,4-h]pteridin-5(6H)-yl)-2-(4-methoxyphenyl)ethanone] | 501
7 | CCOC(=O)c1cncc(-c2ncc3c(n2)N2CCOCC2C(=O)N3Cc2ccc(S(C)(=O)=O)cc2)c1 (centres unmarked) [Example 105, ethyl 5-(5-(4-(methylsulfonyl)benzyl)-6-oxo-5,6,6a,7,9,10-hexahydro-[1,4]oxazino[3,4-h]pteridin-2-yl)nicotinate] | 7940
8 | Cc1nc(-c2cccc3[nH]ccc23)nc2c1N(Cc1ccc(S(C)(=O)=O)cc1)CC1COCCN21 (centres unmarked) [Example 26, 2-(1H-indol-4-yl)-4-methyl-5-(4-(methylsulfonyl)benzyl)-5,6,6a,7,9,10-hexahydro-[1,4]oxazino[3,4-h]pteridine] | 251
9 | COc1cccc2c(-c3ncc4c(n3)N3CCOCC3C(=O)N4Cc3ccc(S(C)(=O)=O)cc3)c[nH]c12 (centres unmarked) [Example 138, 2-(7-methoxy-1H-indol-3-yl)-5-(4-(methylsulfonyl)benzyl)-6a,7,9,10-tetrahydro-[1,4]oxazino[3,4-h]pteridin-6(5H)-one] | 3160
10 | CS(=O)(=O)Nc1cccc(-c2ncc3c(n2)N2CCOCC2C(=O)N3Cc2ccc(S(C)(=O)=O)cc2)c1 (centres unmarked) [Example 117, N-(3-(5-(4-(methylsulfonyl)benzyl)-6-oxo-5,6,6a,7,9,10-hexahydro-[1,4]oxazino[3,4-h]pteridin-2-yl)phenyl)methanesulfonamide] | 794
11 | CS(=O)(=O)c1ccc(CN2C(=O)C3COCCN3c3nc(-c4c[nH]c5c(Cl)cccc45)ncc32)cc1 (centres unmarked) [Example 134, 2-(7-chloro-1H-indol-3-yl)-5-(4-(methylsulfonyl)benzyl)-6a,7,9,10-tetrahydro-[1,4]oxazino[3,4-h]pteridin-6(5H)-one] | > 100
12 | O=C(OCc1ccccc1)N1CC2COCCN2c2nc(-c3cccc4[nH]ccc34)ncc21 (centres unmarked) [Example 53, benzyl 2-(1H-indol-4-yl)-6a,7,9,10-tetrahydro-[1,4]oxazino[3,4-h]pteridine-5(6H)-carboxylate] | 251
13 | O=C(CN1C[C@@H]2COCCN2c2nc(-c3cccc4[nH]ccc34)ncc21)NCC1CCOCC1 [Example 73, (R)-2-(2-(1H-indol-4-yl)-6a,7,9,10-tetrahydro-[1,4]oxazino[3,4-h]pteridin-5(6H)-yl)-N-((tetrahydro-2H-pyran-4-yl)methyl)acetamide] | 20
14 | CS(=O)(=O)c1ccc(CN2CC3COCCN3c3nc(-c4cccc5[nH]ccc45)ncc32)c(Cl)c1 (centres unmarked) [Example 5, 5-(2-chloro-4-(methylsulfonyl)benzyl)-2-(1H-indol-4-yl)-5,6,6a,7,9,10-hexahydro-[1,4]oxazino[3,4-h]pteridine] | 10

The remaining lines, values ahead:

Row | IC50 [nM] | SMILES
15 | 7.94 | CC(C)(O)CCN1C[C@@H]2COCCN2c2nc(-c3cccc4[nH]ccc34)ncc21 [Example 169, (R)-4-(2-(1H-indol-4-yl)-6a,7,9,10-tetrahydro-[1,4]oxazino[3,4-h]pteridin-5(6H)-yl)-2-methylbutan-2-ol]
16 | > 10000 | CCc1nnc(CN2C[C@@H]3COCCN3c3nc(-c4ccc(O)nc4)ncc32)o1 [Example 168, (R)-5-(5-((5-ethyl-1,3,4-oxadiazol-2-yl)methyl)-5,6,6a,7,9,10-hexahydro-[1,4]oxazino[3,4-h]pteridin-2-yl)pyridin-2-ol]
17 | 79.4 | c1cnc(CN2CC3COCCN3c3nc(-c4cccc5[nH]ccc45)ncc32)nc1 (centres unmarked) [Example 164, 2-(1H-indol-4-yl)-5-(pyrimidin-2-ylmethyl)-5,6,6a,7,9,10-hexahydro-[1,4]oxazino[3,4-h]pteridine]
18 | 3.98 | CNC(=O)Nc1ccc(-c2ncc3c(n2)N2CCOCC2C(=O)N3[C@@H](C)c2ccc(Cl)cc2)cc1 (single isomer, unassigned) [Example 161]
19 | 1000 | COC(=O)c1cncc(N2C[C@@H]3COCCN3c3nc(-c4cccc5[nH]ccc45)ncc32)c1 [Example 199, (R)-methyl 5-(2-(1H-indol-4-yl)-6a,7,9,10-tetrahydro-[1,4]oxazino[3,4-h]pteridin-5(6H)-yl)nicotinate]
20 | 1000 | COCc1cccc(-c2ncc3c(n2)N2CCOC[C@H]2CN3CC(=O)NCC2CCOCC2)c1 [Example 216, (R)-2-(2-(3-(methoxymethyl)phenyl)-6a,7,9,10-tetrahydro-[1,4]oxazino[3,4-h]pteridin-5(6H)-yl)-N-((tetrahydro-2H-pyran-4-yl)methyl)acetamide]
21 | 6.31 | C[C@@H](c1ccc(Cl)cc1)N1C(=O)C2COCCN2c2nc(-c3cnc(N)nc3)ncc21 (mixture of isomers) [Example 162]
22 | 31.6 | O=C(Nc1ccc(-c2ncc3c(n2)N2CCOCC2C(=O)N3C2CCOCC2)cc1)NC1CC1 (centres unmarked) [Example 229, 1-cyclopropyl-3-(4-(6-oxo-5-(tetrahydro-2H-pyran-4-yl)-5,6,6a,7,9,10-hexahydro-[1,4]oxazino[3,4-h]pteridin-2-yl)phenyl)urea]
23 | 5010 | O=C(CN1C[C@@H]2COCCN2c2nc(-c3ccccc3CO)ncc21)NCC1CCOCC1 [Example 215, (R)-2-(2-(2-(hydroxymethyl)phenyl)-6a,7,9,10-tetrahydro-[1,4]oxazino[3,4-h]pteridin-5(6H)-yl)-N-((tetrahydro-2H-pyran-4-yl)methyl)acetamide]
24 | 501 | O=C(CN1C[C@@H]2COCCN2c2nc(-c3ccc(CO)s3)ncc21)NCC1CCOCC1 [Example 226, (R)-2-(2-(5-(hydroxymethyl)thiophen-2-yl)-6a,7,9,10-tetrahydro-[1,4]oxazino[3,4-h]pteridin-5(6H)-yl)-N-((tetrahydro-2H-pyran-4-yl)methyl)acetamide]
25 | 1.58 | CC(C)Cc1nnc(C(C)N2C[C@@H]3COCCN3c3nc(-c4cccc(CO)c4)ncc32)o1 (some centres unmarked) [Example 176]
26 | 398 | CCc1cccc(N2C[C@@H]3COCCN3c3nc(-c4cccc5[nH]ccc45)ncc32)c1 [Example 183, (R)-5-(3-ethylphenyl)-2-(1H-indol-4-yl)-5,6,6a,7,9,10-hexahydro-[1,4]oxazino[3,4-h]pteridine]
